Legend:
HepG2 = assay: MTT anti-proliferative assay, HepG2; format: cell-based; details: Homo sapiens, 48 h treatment
Method: (§1) The in vitro anti-proliferation of the chemical compounds was measured by the MTT reagent. Briefly, 5 × 10^3 cells in 100 μL of medium per well were plated in 96-well plates. After being incubated for 24 h at 37 °C, the cells were treated with different concentration of tested compound or DMSO (as negative control) for 48 h. Then the medium with compound or DMSO was replaced with 200 μL of fresh medium containing 10% MTT (5 mg/mL in PBS) in each well and incubated at 37 °C for 4 h. Last, the MTT-containing medium was discarded and 150 μL of DMSO per well was added to dissolve the formazan crystals newly formed. Absorbance of each well was determined by a microplate reader (Synergy H4, Bio-Tek) at a 570 nm wavelength. The inhibition rates of proliferation were calculated with the following equation:Inhibition ratio (%) = (ODDMSO−ODcompd)/(ODDMSO−ODblank) × 100(1)
(§2) The concentration of the compounds that inhibited cell growth by 50% (IC50) was calculated using GraphPad Prism, version 6.0.

Huh7 = assay: MTT anti-proliferative assay, Huh7; format: cell-based; details: Homo sapiens, Huh-7, 48 h treatment
Method: as §1, §2

MCF-7 = assay: MTT anti-proliferative assay, MCF-7; format: cell-based; details: Homo sapiens, MCF7, 48 h treatment
Method: as §1, §2

[1] = test system: MDA-MB-231 (triple negative breast cancer); assay: MTT anti-proliferative assay, MDA-MB-231; format: cell-based; details: Homo sapiens, 48 h treatment
Method: as §1, §2

[2] = test system: Hela (human cervical carcinoma); assay: MTT anti-proliferative assay, Hela; format: cell-based; details: 48 h treatment
Method: as §1, §2

A549 = assay: MTT anti-proliferative assay, A549; format: cell-based; details: Homo sapiens, 48 h treatment
Method: as §1, §2

[3] = test system: mouse melanoma cell line B16F10; assay: MTT anti-proliferative assay, B16F10; format: cell-based; details: B16-F10, 48 h treatment
Method: as §1, §2

[4] = test system: HUVEC (Human Umbilical Vein Endothelial Cells); assay: MTT anti-proliferative assay, nontumorigenesis cells HUVEC; format: cell-based; details: 48 h treatment
Method: as §1, §2

293T = assay: MTT anti-proliferative assay, nontumorigenesis cells 293T; format: cell-based; details: Homo sapiens, HEK-293T, 48 h treatment
Method: as §1, §2

Row | SMILES | IC50 (HepG2) [µM] | IC50 (Huh7) [µM] | IC50 (MCF-7) [µM] | IC50 [1] [µM] | IC50 [2] [µM] | IC50 (A549) [µM] | IC50 [3] [µM] | melting point [°C] | IC50 [4] [µM] | IC50 (293T) [µM]
1 | CC(CCO)NNC(=O)c1cc(Oc2ccc(NC(=O)Nc3ccc(Cl)c(C(F)(F)F)c3)cc2)ccn1 (stereo not shown) [Compound 15b, 1-(4-Chloro-3-(trifluoromethyl)phenyl)-3-(4-((2-(2-(4-hydroxybutan-2-yl)hydrazine-1-carbonyl)pyridin-4-yl)oxy)phenyl)urea] | > 500 | > 500 | > 500 | > 500 | > 500 | > 500 | > 500 | 89 to 92 | 1250 | 559
2 | O=C(Nc1ccc(Oc2ccnc(C(=O)NCCO)c2)cc1)Nc1ccc(Cl)c(C(F)(F)F)c1 [Compound 10a, N-(2-hydroxyethyl)-4-(4-(3-(4-chloro-3-(trifluoromethyl)phenyl)ureido)phenoxy)picolinamide] | 70.7 | 319 | 471 | > 500 | > 500 | 287 | > 500 | 193 to 195 | 583 | 643
3 | O=C(Nc1ccc(Oc2ccnc(C(=O)NCCS)c2)cc1)Nc1ccc(Cl)c(C(F)(F)F)c1 [Compound 10b, N-(2-mercaptoethyl)-4-(4-(3-(4-chloro-3-(trifluoromethyl)phenyl)ureido)phenoxy) picolinamide] | 282 | 58.8 | 159 | 295 | 63.7 | 447 | > 500 | – | 197 | 135
4 | O=C(Nc1ccc(Oc2ccnc(C(=O)NCCCO)c2)cc1)Nc1ccc(Cl)c(C(F)(F)F)c1 [Compound 10c, N-(3-hydroxypropyl)-4-(4-(3-(4-chloro-3-(trifluoromethyl)phenyl)ureido)phenoxy)picolinamide] | 90.1 | 88.4 | 268 | 330 | 233 | > 500 | 449 | 103 to 105 | 329 | 454

More lines, in order of falling IC50 (HepG2), values ahead:

Row | IC50 (HepG2) [µM] | IC50 (Huh7) [µM] | IC50 (MCF-7) [µM] | IC50 [1] [µM] | IC50 [2] [µM] | IC50 (A549) [µM] | IC50 [3] [µM] | melting point [°C] | SMILES | IC50 [4] [µM] | IC50 (293T) [µM]
5 | 80.1 | > 500 | > 500 | > 500 | > 500 | 46.2 | > 500 | 139 to 141 | CC(CO)NNC(=O)c1cc(Oc2ccc(NC(=O)Nc3ccc(Cl)c(C(F)(F)F)c3)cc2)ccn1 (stereo not shown) [Compound 15a, 1-(4-Chloro-3-(trifluoromethyl)phenyl)-3-(4-((2-(2-(1-hydroxypropan-2-yl)hydrazine-1-carbonyl)pyridin-4-yl)oxy)phenyl)urea] | 320 | 1580
6 | 24.1 | 19.5 | 37.2 | 12.3 | 49.5 | 17.4 | 17.3 | – | CNC(=O)c1cc(Oc2ccc(NC(=O)Nc3ccc(Cl)c(C(F)(F)F)c3)cc2)ccn1 [Sorafenib] | 35.5 | 16.1

— publication PMC7037283, “Introduction of Mercaptoethyl at Sorafenib Pyridine-2-Amide Motif as a Potentially Effective Chain to Further get Sorafenib-PEG-DGL” (Molecules, 2020)
